99 compounds from US11898187B2 (priority 2017, dated 2024) can be followed below.

N-glycosyltransferase from Actinobacillus pleuropneumoniae, sequence (A3N2T3 whole entry, the tested form may be a part): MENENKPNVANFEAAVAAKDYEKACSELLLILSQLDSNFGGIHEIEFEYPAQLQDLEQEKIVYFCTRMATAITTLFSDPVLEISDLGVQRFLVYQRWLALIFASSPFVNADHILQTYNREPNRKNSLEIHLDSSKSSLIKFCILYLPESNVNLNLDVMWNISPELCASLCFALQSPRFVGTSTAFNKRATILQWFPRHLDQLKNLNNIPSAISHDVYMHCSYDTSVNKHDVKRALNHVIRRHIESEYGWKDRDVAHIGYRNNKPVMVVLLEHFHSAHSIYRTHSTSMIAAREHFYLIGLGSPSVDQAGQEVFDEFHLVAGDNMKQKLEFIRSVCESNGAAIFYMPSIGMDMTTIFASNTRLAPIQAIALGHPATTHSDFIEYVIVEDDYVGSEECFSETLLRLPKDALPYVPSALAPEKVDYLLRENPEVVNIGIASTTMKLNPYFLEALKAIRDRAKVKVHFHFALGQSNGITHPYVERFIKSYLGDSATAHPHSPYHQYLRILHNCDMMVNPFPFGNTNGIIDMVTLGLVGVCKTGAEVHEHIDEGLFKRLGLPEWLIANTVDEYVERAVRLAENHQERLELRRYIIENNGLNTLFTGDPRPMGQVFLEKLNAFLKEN

The target in one assay is T1, NGT (Actinobacillus pleuropneumoniae serotype 5b, UniProt A3N2T3).
T1 sequence (A3N2T3 whole entry): as the sequence (A3N2T3 whole entry, the tested form may be a part) above
Assay: not given
The class given is biochemical. The note with it: 5 μM Im7 variant, 0.1 μM NGT, 2.5 mM UDP-Glc, 2.5 h, 30° C.
Turning to GGNWTT, the “glycosylation of Im7 variant” value is “most efficient modification within the Im7 protein”.

For a further assay, the target named is T1, NGT.
Assay: not given
Type of assay: biochemical. The note with it: 50 μM peptide, 1 mM sugar donor, purified NGT, 30° C.
On to `O=c1ccn([C@@H]2O[C@H](COP(=O)(O)OP(=O)(O)O[C@H]3OC[C@@H](O)[C@H](O)[C@H]3O)[C@@H](O)[C@H]2O)c(=O)[nH]1` [UDP-Xyl, UDP-xylose], for which the “efficiency of sugar transfer by NGT” value is given as “much lower efficiencies”.

Another assay addresses N-glycosyltransferase from Actinobacillus pleuropneumoniae (Actinobacillus pleuropneumoniae serotype 5b, UniProt A3N2T3). Nature of the assay: GlycoSCORES: peptide glycosylation by NGT, read by SAMDI-MS. Type of assay: biochemical. The note with it: 50 μM peptide, 2.5 mM UDP-Glc, 0.5 μM purified NGT, 30° C., 3 h.
Consider QNATFC, for which the “glucose modification of truncated GSDQNATF peptides” value is “most efficient glucose modification”.

With CNAT, the “glucose modification of truncated GSDQNATF peptides” value was “could be modified by NGT”.

The same assay, now with this note: 4-mer peptides, fraction modified (0-1).
As for MNRT, the “MO[…]” value is given as 0.6724.

As to PNAT, the “MO[…]” value is recorded as 0.8919.

In the case of PNYT, the “MO[…]” value was determined as 0.8963.

For SNRT, the “MO[…]” value is listed as 0.6821.

Regarding VNAT, the “MO[…]” value came out at 0.6982.

As for QNVT, the “MO[…]” value turned out to be 0.5056.

Consider GNHT, for which the “MO[…]” value worked out at 0.7856.

Take MNVT: the “MO[…]” value was 0.8374.

For the compound ENRT, the “MO[…]” value was found to be 0.7271.

Take TNVT: the “MO[…]” value is on record as 0.9096.

For the compound SNST, the “MO[…]” value was 0.5156.

In the case of TNHT, the “MO[…]” value worked out at 0.8444.

On to INVT, for which the “MO[…]” value is 0.6893.

In the case of SNHT, the “MO[…]” value is listed as 0.906.

Regarding TNAT, the “MO[…]” value turned out to be 0.7761.

Consider ANYT, for which the “MO[…]” value came out at 0.91.

On to ANMS, for which the “MO[…]” value was found to be 0.5336.

Regarding SNVT, the “MO[…]” value was 0.9488.

In the case of PNFT, the “MO[…]” value is listed as 0.8402.

Regarding HNVS, the “MO[…]” value amounted to 0.9185.

For the compound LNVT, the “MO[…]” value is 0.6724.

For the compound NNVS, the “MO[…]” value worked out at 0.7147.

With PNYS, the “MO[…]” value is 0.6762.

On to NNAT, for which the “MO[…]” value is 0.7664.

Consider DNVT, for which the “MO[…]” value is on record as 0.5073.

Regarding ANHS, the “MO[…]” value is recorded as 0.6918.

Consider PNIS, for which the “MO[…]” value is 0.8821.

As to WNHT, the “MO[…]” value was 0.8335.

For PNIT, the “MO[…]” value was determined as 0.9358.

On to PNLT, for which the “MO[…]” value was determined as 0.8254.

Take MNMT: the “MO[…]” value was found to be 0.5547.

Take NNHT: the “MO[…]” value worked out at 0.8624.

Regarding PNVS, the “MO[…]” value is given as 0.9374.

Consider VNIT, for which the “MO[…]” value was found to be 0.6873.

Turning to MNVS, the “MO[…]” value worked out at 0.9118.

Turning to VNVT, the “MO[…]” value was determined as 0.8081.

Regarding TNST, the “MO[…]” value amounted to 0.6424.

On to PNVT, for which the “MO[…]” value is reported as 0.9741.

Consider HNRT, for which the “MO[…]” value is 0.6962.

For PNRT, the “MO[…]” value came out at 0.8662.

SNYT: the “MO[…]” value was found to be 0.6177.

As to PNMT, the “MO[…]” value worked out at 0.8399.

For the compound ANST, the “MO[…]” value came to 0.7846.

ANFT: the “MO[…]” value came out at 0.8633.

Consider HNAT, for which the “MO[…]” value was 0.7427.

For PNMS, the “MO[…]” value amounted to 0.636.

With HNHS, the “MO[…]” value is 0.6747.

Consider MNHS, for which the “MO[…]” value was 0.6816.

Take MNAT: the “MO[…]” value came to 0.7903.

For MNHT, the “MO[…]” value came out at 0.855.

Regarding MNIT, the “MO[…]” value turned out to be 0.7393.

As to ANAT, the “MO[…]” value is 0.9101.

Take ANTT: the “MO[…]” value was found to be 0.7872.

On to ANVS, for which the “MO[…]” value is recorded as 0.9611.

For the compound TNHS, the “MO[…]” value was 0.5091.

PNHS: the “MO[…]” value came to 0.6988.

Regarding ENVT, the “MO[…]” value was 0.8903.

Consider TNVS, for which the “MO[…]” value was 0.8695.

Take GNVT: the “MO[…]” value was found to be 0.8843.

As for HNIS, the “MO[…]” value worked out at 0.704.

In the case of GNWT, the “MO[…]” value is listed as 0.9409.

In the case of MNIS, the “MO[…]” value was 0.5286.

As for GNYT, the “MO[…]” value is on record as 0.5195.

With PNTT, the “MO[…]” value worked out at 0.8532.

Take ENVS: the “MO[…]” value was determined as 0.6584.

Regarding ANLT, the “MO[…]” value was found to be 0.6957.

Turning to DNHT, the “MO[…]” value turned out to be 0.7287.

On to GNWS, for which the “MO[…]” value is 0.72.

In the case of SNAT, the “MO[…]” value stood at 0.8383.

For WNRT, the “MO[…]” value was determined as 0.6933.

With SNTT, the “MO[…]” value was 0.5496.

As to LNIT, the “MO[…]” value worked out at 0.5288.

Consider ANVT, for which the “MO[…]” value is 0.9844.

In the case of MNTT, the “MO[…]” value was 0.5502.

For the compound GNVS, the “MO[…]” value is reported as 0.6117.

Turning to ENST, the “MO[…]” value worked out at 0.6042.

Turning to SNVS, the “MO[…]” value stood at 0.971.

Regarding NNRT, the “MO[…]” value is 0.7671.

With WNAT, the “MO[…]” value was 0.8599.

Turning to PNST, the “MO[…]” value turned out to be 0.8271.

In the case of ENHT, the “MO[…]” value came out at 0.7656.

On to WNIT, for which the “MO[…]” value turned out to be 0.9275.

On to ANIS, for which the “MO[…]” value amounted to 0.8694.

Turning to SNIT, the “MO[…]” value was 0.7453.

In the case of SNHS, the “MO[…]” value amounted to 0.5937.

For HNIT, the “MO[…]” value stood at 0.8411.

Regarding ANRT, the “MO[…]” value worked out at 0.8206.

In the case of WNIS, the “MO[…]” value came out at 0.746.

Take NNHS: the “MO[…]” value was determined as 0.6848.

Regarding ANYS, the “MO[…]” value stood at 0.6975.

Still in this assay, the particulars now being: 6-mer sequences in GlycoSCORES peptide screens; 50 μM peptide, 2.5 mM UDP-Glc, 0.025 μM NGT for 1 h.
YANATS: the “glycosylation / modification efficiency” value was about 36%.

Turning to FANATT, the “glycosylation / modification efficiency” value is given as about 75%.

Staying with this assay, now noted: CFPS NGT, 50 μM peptide, 2.5 mM UDP-Glc, 30° C.
On to GGNWTT, for which the “modification by NGT in GlycoSCORES peptide screens” value (from here on “modification by NGT”) was “more efficiently glycosylated than any previously studied”.

YANATT: the “modification by NGT” value is “efficiently modified”.

As for GNWTRC, the “modification by NGT” value is on record as “among the most efficiently glycosylated sequences”.

With NHNETD, the “modification by NGT” value is listed as “no detectable modification”.

A further assay deals with T1, NGT.
Assay: not given
Type of assay: cell-based. The note with it: BL21(DE3) E. coli; Fc induced 2 h, then NGT 30 min.
On to GGNWTT, for which the “glycosylation of Fc variant in E. coli cytoplasm” value is “most efficient glycosylation”.

Still in this assay, the particulars now being: GlycTag at Asn1366; HMW1ct induced 1 h, then NGT 2 h.
GGNWTT: the “modification of HMW1ct variant in E. coli cytoplasm” value is reported as “highest modification”.
